Drawing on patent US11407771B2 (priority 2018, dated 2022), this text covers IC50 for 13 molecules.

This assay addresses MAPK13 (Homo sapiens (Human), UniProt O15264). The experiment in a line: biochemical.

Chain of MAPK13 (O15264 whole entry): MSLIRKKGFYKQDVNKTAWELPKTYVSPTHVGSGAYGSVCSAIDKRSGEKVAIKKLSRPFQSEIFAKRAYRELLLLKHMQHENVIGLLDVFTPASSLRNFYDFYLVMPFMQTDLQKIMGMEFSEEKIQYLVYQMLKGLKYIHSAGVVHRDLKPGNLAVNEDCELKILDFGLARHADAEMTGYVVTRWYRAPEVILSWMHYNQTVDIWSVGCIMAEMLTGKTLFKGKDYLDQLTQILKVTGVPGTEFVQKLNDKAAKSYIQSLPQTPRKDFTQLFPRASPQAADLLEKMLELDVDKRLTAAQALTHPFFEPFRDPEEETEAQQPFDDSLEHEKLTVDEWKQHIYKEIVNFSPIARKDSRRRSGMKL

Take `Cc1ccc(-n2nc(C3(C)COC3)cc2NC(=O)Nc2ncc(CCc3ccncc3)s2)cc1` [Compound 271]: the IC50 is 250 to 1000 nM. For `Cc1ccc(-n2nc(C(C)(C)C)cc2NC(=O)Nc2ncc(CCc3ccnc(NC(=O)OCc4ccccc4)c3)s2)cc1` [Compound 277, [4-(2-{2-[3-(5-tert-Butyl-2-p-tolyl-2H-pyrazol-3-yl)-ureido]-thiazol-5-yl}-ethyl)-pyridin-2-yl]-carbamic acid benzyl ester], the IC50 fell in the range of 250 to 1000 nM.

In the case of `Cc1ccc(-n2nc(C(C)(C)CO)cc2NC(=O)Nc2ccc(Oc3ccncc3)cc2F)cc1` [Compound 279, 1-[2-Fluoro-4-(pyridin-4-yloxy)-phenyl]-3-[5-(2-hydroxy-1,1-dimethyl-ethyl)-2-p-tolyl-2H-pyrazol-3-yl]-urea], the IC50 lay within 250 to 1000 nM.

For `Cc1ccc(-n2nc(C(C)(C)CO)cc2NC(=O)Nc2ccc(Oc3ccncc3)cc2)cc1` [Compound 280, 1-[5-(2-Hydroxy-1,1-dimethyl-ethyl)-2-p-tolyl-2H-pyrazol-3-yl]-3-[4-(pyridin-4-yloxy)-phenyl]-urea], the IC50 was in the range of 250 to 1000 nM. In turn, `COC(=O)Nc1cc(CCc2ccc(NC(=O)Nc3cc(C(C)(C)C)nn3CC3CC3)c(F)c2)ccn1` [Compound 316, [4-(2-{4-[3-(5-tet-Butyl-2-cyclopropylmethyl-2H-pyrazol-3-yl)-ureido]-3-fluoro-phenyl}-ethyl)-pyridin-2-yl]-carbamic acid methyl ester] came in with an IC50 of 250 to 1000 nM.

Consider `CC(C)(C)c1cc(NC(=O)Nc2ncc(CCc3ccnc(N)c3)s2)no1` [Compound 365, 1-{5-[2-(2-Amine-pyridin-4-yl)-ethyl]-thiazol-2-yl}-3-(5-tert-butyl-isoxazol-3-yl)-urea], for which the IC50 is 250 to 1000 nM.

`CC(C)(C)c1cc(NC(=O)Nc2ncc(CCc3ccnc(N)c3)s2)[nH]n1` [Compound 367, 1-{5-[2-(2-Ainino-pyridin-4-yl)-ethyl]-thiazol-2-yl}-3-(5-tert-butyl-2H-pyrazol-3-yl)-urea]: the IC50 lay in the range of 250 to 1000 nM.

In turn, `Cn1nc(C(C)(C)C)cc1NC(=O)Nc1ccc(CCc2ccnc(NC(=O)C3CC3)c2)cc1F` [Compound 373, Cyclopropanecarboxylic acid [4-(2-{4-[3-(5-tert-butyl-2-methyl-2H-pyrazol-3-yl)-ureido]-3-fluoro-phenyl}-ethyl)-pyridin-2-yl]-amide] showed an IC50 of 250 to 1000 nM. On to `CC(=O)Nc1cc(CCc2ccc(NC(=O)Nc3cc(C(C)(C)C)nn3-c3ccc(F)cc3)c(F)c2)ccn1` [Compound 379, N-{4-[2-(4-{3-[5-tert-Butyl-2-(4-fluoro-phenyl)-2H-pyrazol-3-yl]-ureido}-3-fluoro-phenyl)-ethyl]-pyridin-2-yl}-acetamide], for which the IC50 was in the range of 250 to 1000 nM. With `CC(C)(C)c1cc(NC(=O)Nc2ncc(CCc3ccncc3)s2)on1` [Compound 386, 1-(3-tert-Butyl-isoxazol-5-yl)-3-[5-(2-pyridin-4-yl-ethyl)-thiazol-2-yl]-urea] the figure was 250 to 1000 nM; with `CC(C)(C)c1cc(NC(=O)Nc2ncc(CCc3ccncc3)s2)no1` [Compound 387, 1-(5-tert-Butyl-isoxazol-3-yl)-3-[5-(2-pyridin-4-yl-ethyl)-thiazol-2-yl]-urea], 250 to 1000 nM; with `CC(=O)Nc1cc(Oc2ccc(NC(=O)Nc3cc(C(C)(C)C)nn3CC3CC3)c(F)c2)ccn1` [Compound 393, N-(4-{4-[3-(5-tert-Butyl-2-cyclopropylmethyl-2H-pyrazol-3-yl)-ureido]-3-fluoro-phenoxy}-pyridin-2-yl)-acetamide], less than 250 nM. With `CC(=O)Nc1cc(COc2ccc(NC(=O)Nc3cc([Si](C)(C)C)ccc3F)c(F)c2)ccn1` [Compound 405, N-(4-{3-fluoro-4-[3-(2-fluoro-trimethylsilanyl-phenyl)-ureido]-phenoxymethyl}-pyridin-2-yl)-acetamide] the figure was 250 to 1000 nM.

A word on the IC50: it is the concentration needed to halve the response being measured.
